Assay results reported in publication PMC8006714 (Chemical Communications (Cambridge, England), 2021).
Several values for one entry are separate records, joined by “and”; a condition that tells them apart may be missing. Identical values can stand only once. Entries after “also recorded” stand apart in the source; their conditions may differ. Like-named read-outs stand apart in the source and are kept apart here.

Assays:
SARS-CoV-2 M^pro [1] = biological target: T1, SARS-CoV-2 M^pro (Severe acute respiratory syndrome coronavirus 2, UniProt P0DTD1); type: binding; settings: for covalent modification of M^pro preincubated with N3 (active site selectivity): 1 μM M^pro preincubated with 3 μM N3, 20 μM inhibitor; for covalent modification of M^pro (protein observed SPE-MS): 20 μM inhibitor, 20 mM HEPES pH 7.5, 50 mM NaCl
SARS-CoV-2 M^pro [2] = biological target: T1, SARS-CoV-2 M^pro; test: biochemical; type: biochemical; settings: for inhibition at a fixed 20 μM inhibitor concentration: LOPAC and API library screens; for M^pro inhibition at single concentrations (in words): 20, 50 and 100 µM β-lactam, 30 min or 60 min preincubation (Fig. S17)
SARS-CoV-2 M^pro [3] = biological target: T1, SARS-CoV-2 M^pro; test: biochemical; type: biochemical
M^pro = test system: M^pro; design: method as in doi:10.1101/2020.05.28.120642; settings: read-out: reported IC50; cited from earlier work
[4] = 30 min preincubation, SPE-MS dose response
[5] = 60 min preincubation, SPE-MS dose response

**Q.** For Oc1ccc2ccccc2c1SSc1c(O)ccc2ccccc12 [IPA-3, 1,1’-Disulfanediyldinaphthalen-2-ol], which “covalent modification of M^pro preincubated with N3 (active site selectivity)” value (SARS-CoV-2 M^pro [1]) is on record?
**A.** multiple adducts observed with unmodified M^pro were diminished; also recorded: does not (at least substantially) covalently modify Mpro

**Q.** And the “covalent modification of M^pro (protein observed SPE-MS)” value (SARS-CoV-2 M^pro [1]; 1 μM M^pro)?
**A.** reacts with Mpro at multiple positions

**Q.** And the “inhibition at a fixed 20 μM inhibitor concentration” value (SARS-CoV-2 M^pro [2])?
**A.** ≥ 80%

**Q.** And the inhibition at 20 µM (SARS-CoV-2 M^pro [2]; read-out: % Mpro inhibition at 20 µM)?
**A.** 99.1%

**Q.** And the IC50 (SARS-CoV-2 M^pro [3]; IC50 (SPE-MS))?
**A.** ~100 nM and 70 nM

**Q.** What does the source list for COC1(NC(=O)Cc2ccccc2)C(=O)N2C1[S+]([O-])C(C)(C)C2C(=O)OCc1ccc([N+](=O)[O-])cc1 (stereo not shown) [Compound 2, C6-methoxy penicillin G sulfoxide C3 p-nitrobenzyl ester]?
**A.** covalent modification of M^pro preincubated with N3 (active site selectivity) (SARS-CoV-2 M^pro [1]): Minor further modification; covalent modification of M^pro (protein observed SPE-MS) (SARS-CoV-2 M^pro [1]; 1 μM M^pro): does not efficiently modify M^pro through covalent reaction; extent of covalent modification of M^pro (SARS-CoV-2 M^pro [1]; 1 μM M^pro, 20 μM β-lactam): < 10%; M^pro inhibition at single concentrations (in words) (SARS-CoV-2 M^pro [2]): moderate inhibition; Hill slope (SARS-CoV-2 M^pro [3]; [4]): 2.2 ± 0.1; Hill slope (SARS-CoV-2 M^pro [3]; [5]): 2.1 ± 0.1; IC50 (SARS-CoV-2 M^pro [3]; IC50 (SPE-MS)): ~3500 nM and 3500 nM and 2100 nM

**Q.** With CC(=O)OC[C@H]1O[C@@H]([S-])[C@H](OC(C)=O)[C@@H](OC(C)=O)[C@@H]1OC(C)=O.CCP(CC)CC.[Au+] [Auranofin] as the compound, how does the “% Mpro inhibition at 20 µM” value (SARS-CoV-2 M^pro [2]) read?
**A.** 100.0%

**Q.** What about the “inhibition at a fixed 20 μM inhibitor concentration” value (SARS-CoV-2 M^pro [2]) of the same compound?
**A.** ≥ 80%

**Q.** And the IC50 (M^pro)?
**A.** ~500 nM

**Q.** Which “covalent modification of M^pro preincubated with N3 (active site selectivity)” value (SARS-CoV-2 M^pro [1]) does the source give for CC1(C)[C@H](C(=O)OCc2ccccc2)N2C(=O)[C@@H](NC(=O)COc3ccccc3)[C@H]2S1(=O)=O [Compound 1, penicillin V sulfone C3 benzyl ester] here?
**A.** no reaction

**Q.** And the “covalent modification of M^pro (protein observed SPE-MS)” value (SARS-CoV-2 M^pro [1]; 1 μM M^pro)?
**A.** A single molecule 1 covalently modifies M^pro; also recorded: Covalent modification was observed

**Q.** What about the “M^pro inhibition at single concentrations (in words)” value (SARS-CoV-2 M^pro [2]) of the same compound?
**A.** moderate inhibition

**Q.** And the Hill slope (SARS-CoV-2 M^pro [3]; [4])?
**A.** 1.4 ± 0.4

**Q.** And the Hill slope (SARS-CoV-2 M^pro [3]; [5])?
**A.** 1.6 ± 0.2

**Q.** What about the IC50 (SARS-CoV-2 M^pro [3]; IC50 (SPE-MS)) of the same compound?
**A.** ~1500 nM and 1500 nM and 900 nM

**Q.** With [Cl-].[Cl-].[Zn+2] [ZnCl2] as the compound, how does the Hill slope (SARS-CoV-2 M^pro [3]) read?
**A.** 2.23 and 2.07

**Q.** What about the IC50 (SARS-CoV-2 M^pro [3]; read-out: IC50) of the same compound?
**A.** 340 nM and 370 nM

**Q.** Which “covalent modification of M^pro preincubated with N3 (active site selectivity)” value (SARS-CoV-2 M^pro [1]) does the source give for Cc1ccc(S(=O)(=O)N[C@@H](Cc2ccccc2)C(=O)CCl)cc1 [TPCK, N-p-Toluenesulfonyl-L-phenylalanine chloromethyl ketone] here?
**A.** does not covalently modify M^pro in the presence of N3; also recorded: substantial covalent modification was no longer observed; also recorded: does not react with TPCK

**Q.** And the “covalent modification of M^pro (protein observed SPE-MS)” value (SARS-CoV-2 M^pro [1]; 1 μM M^pro)?
**A.** modifies M^pro in a covalent manner; also recorded: covalently reacts with Mpro

**Q.** What about the “% Mpro inhibition at 20 µM” value (SARS-CoV-2 M^pro [2]) of the same compound?
**A.** 94.1%

**Q.** What about the IC50 (SARS-CoV-2 M^pro [3]; pH 7.5, read-out: IC50 (SPE-MS)) of the same compound?
**A.** ~800 nM and 830 nM

**Q.** Which “covalent modification of M^pro preincubated with N3 (active site selectivity)” value (SARS-CoV-2 M^pro [1]) does the source give for Cc1cc(C(=O)N[C@@H](C)C(=O)N[C@H](C(=O)N[C@@H](CC(C)C)C(=O)N[C@H](/C=C/C(=O)OCc2ccccc2)C[C@@H]2CCNC2=O)C(C)C)no1 [Compound N3] here?
**A.** one major binding event

**Q.** And the “covalent modification of M^pro (protein observed SPE-MS)” value (SARS-CoV-2 M^pro [1]; 1 μM M^pro)?
**A.** modifies M^pro in a covalent manner; also recorded: more than one reaction with the Mpro monomer; also recorded: predominantly (but not exclusively) a single N3 adduct was observed

**Q.** And the IC50 (SARS-CoV-2 M^pro [3]; IC50 (SPE-MS))?
**A.** 40 nM and 30 nM

**Q.** Which results are given for Cc1ccc(S(=O)(=O)N[C@@H](CCCCN)C(=O)CCl)cc1.Cl [TLCK, Nα-p-Toluenesulfonyl-L-lysine chloromethyl ketone hydrochloride]?
**A.** covalent modification of M^pro preincubated with N3 (active site selectivity) (SARS-CoV-2 M^pro [1]): does not react with TLCK; covalent modification of M^pro preincubated with N3 (active site selectivity) (SARS-CoV-2 M^pro [1]; listed as Nα-p-toluenesulfonyl-L-lysine chloromethyl ketone): substantial covalent modification was no longer observed; covalent modification of M^pro (protein observed SPE-MS) (SARS-CoV-2 M^pro [1]; 1 μM M^pro): covalently reacts with M pro; % Mpro inhibition at 20 µM (SARS-CoV-2 M^pro [2]): 88.3%

**Q.** For CC(=O)OCC1=C(C(=O)[O-])N2C(=O)[C@@H](NC(=O)CCC[C@@H](N)C(=O)[O-])[C@H]2SC1.[Zn+2] [Cephalosporin C zinc salt], which “% Mpro inhibition at 20 µM” value (SARS-CoV-2 M^pro [2]) is on record?
**A.** 92.3%

**Q.** And the “M^pro inhibition (in words)” value (SARS-CoV-2 M^pro [2])?
**A.** inhibited

**Q.** What about the “Hill slope” value (SARS-CoV-2 M^pro [3]; 22 minutes preincubation, SPE-MS) of the same compound?
**A.** 1.83
